Molecular target: T1, WT holoALAS2 (residues 54–587) (Homo sapiens, UniProt P22557)
T1 construct: His6-SUMO (N, cleaved yes); made in house; host or cells: Escherichia coli BL21-Codon Plus (DE3)-RIL
T1 sequence (P22557 54-587): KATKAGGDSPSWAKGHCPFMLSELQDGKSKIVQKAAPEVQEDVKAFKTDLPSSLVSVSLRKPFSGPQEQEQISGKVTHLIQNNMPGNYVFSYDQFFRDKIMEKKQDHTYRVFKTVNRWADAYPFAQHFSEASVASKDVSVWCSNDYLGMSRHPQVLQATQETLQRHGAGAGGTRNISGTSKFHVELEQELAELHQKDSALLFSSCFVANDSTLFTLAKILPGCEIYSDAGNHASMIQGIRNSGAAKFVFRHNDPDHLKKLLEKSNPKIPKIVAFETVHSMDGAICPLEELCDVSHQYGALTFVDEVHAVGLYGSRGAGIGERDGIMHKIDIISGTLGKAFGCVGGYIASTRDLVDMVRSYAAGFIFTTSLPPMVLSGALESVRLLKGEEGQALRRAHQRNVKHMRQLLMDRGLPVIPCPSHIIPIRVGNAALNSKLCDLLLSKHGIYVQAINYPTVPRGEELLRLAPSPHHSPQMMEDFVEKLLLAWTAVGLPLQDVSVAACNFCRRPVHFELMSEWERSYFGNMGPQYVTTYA
Test: Succinyl-CoA:hemin competition analysis
Assay type: biochemical
Settings: succinyl-CoA varied; for Km: 95% confidence interval in brackets
Method: A discontinuous colorimetric activity assay adapted from Shoolingin-Jordan et al. and Bailey et al. was used to measure the enzyme activity ([48], [74]). The reaction was initiated by adding 100 nM purified enzyme to 50 mM potassium phosphate, pH 7.0, 10 mM MgCl2, 1 mM DTT, 100 mM glycine, and 300 μM succinyl-CoA (175 μl total). The reaction was incubated at 37 °C for 15 min and terminated with 100 μl of cold 10% trichloroacetic acid. The precipitated protein was removed by centrifugation for 5 min at 13,000g, and 240 μl of the supernatant was mixed with 240 μl of 1 M sodium acetate, pH 4.6. To derivatize ALA, 20 μl of acetylacetone was added to the mixture and boiled at 100 °C for 10 min. After the sample was cooled for 20 min, 100 μl aliquots were transferred into a clear 96-well plate in triplicate. An equal volume of Ehrlich’s reagent (p-Dimethylaminobenzaldehyde, DMAB) was added to each well, and the absorbance was monitored at 553 nm using a microplate reader (Thermo Fisher Scientific). The peak absorbance value was converted to molar ALA concentration using ε553 = 60,400 M^−1 cm^−1.
For inhibitor competition experiments, the apoenzymes were preincubated with hemin or PLP (0–100 μM) for 15 min at 25 °C in the dark before initiating the reaction. Next, either PLP or hemin (0–100 μM) was titrated into the reactions to measure enzyme activation after hemin inhibition or enzyme inhibition of the PLP-treated apoenzyme, respectively. For succinyl-CoA:hemin competition analyses, the WT holoenzyme was mixed with hemin (0, 25, 50, and 100 μM), followed by the addition of increasing succinyl-CoA concentrations (0, 25, 50, 100, 250, and 500 μM). All experiments were performed with a minimum of three biological replicates, each with three technical replicates. Data were fit using nonlinear regression to generate an agonist dose-response curve (EC50) or an inhibitor dose-response curve (IC50). Lineweaver-Burk analysis was performed using the resulting kinetic parameters (Vmax and KM) in GraphPad Prism 10.

succinyl-CoA
Vmax (hemin 0 μM): 337.15 [445.63, 271.22] nmol/min/mg
Km (hemin 0 μM): 178 µM
Vmax (hemin 25 μM): 109.04 [132.82, 92.51] nmol/min/mg
Km (hemin 25 μM): 54.8 µM
Vmax (hemin 50 μM): 45.98 [63.13, 36.15] nmol/min/mg
Km (hemin 50 μM): 46.2 µM
Vmax (hemin 100 μM): 37.50 [60.98, 27.07] nmol/min/mg
Km (hemin 100 μM): 39.2 µM

Reference: paper PMC12856317, “A reversible feedback mechanism regulating mitochondrial heme synthesis” (The Journal of Biological Chemistry, 2025)
